Patent publication US20240299452A1, “Rapamycin and Cell Therapy” (Innovative Cellular Therapeutics Holdings, Ltd., priority 2023, published 2024)

Legend:
[1] = taken orally at a dose of 2 mg/day; read-out: maximum blood concentration (Cmax); cited from earlier work
[2] = tested on: CD19 CAR T cells stimulated with nalm6 cells; assay: CAR T cell proliferation after 96 hours with rapamycin; format: cell-based; details: nalm6 stimulation, CD4+ and CD8+ subsets
Experimental: The following study investigated the effects of rapamycin on CAR T cells and tumor cell lines. In the first part of the experiment, cytokine release assays were performed. […] In the same experiments, T cell proliferation was assessed to determine whether rapamycin affects the expansion of CAR T cells. […] In the last part of the study, rapamycin was directly applied to two types of tumor cell lines, PC3 and LNCAP, to assess its impact on tumor cell proliferation. […] It can decrease the proliferation of tumor cells, aligning with clinical observations.
The bar graphs depict the proliferation rates of CAR T cells, specifically CD4+ and CD8+ subsets, after 96 hours of stimulation with CD19 antigen and varying concentrations of rapamycin. […] CD8: The right graph indicates the percentage of proliferating CD8+ CAR T cells under the same treatment conditions as CD4+.

Question: With `CO[C@H]1C[C@@H]2CC[C@@H](C)[C@@](O)(O2)C(=O)C(=O)N2CCCC[C@H]2C(=O)O[C@H]([C@H](C)C[C@@H]2CC[C@@H](O)[C@H](OC)C2)CC(=O)[C@H](C)/C=C(\C)[C@@H](O)[C@@H](OC)C(=O)[C@H](C)C[C@H](C)/C=C/C=C/C=C/1C` [rapamycin, Rapamycin] as the molecule, how does the Cmax [1] read?
Answer: Its Cmax is 16 nM.

Question: What about the “CAR T cell proliferation” value [2] of the same molecule?
Answer: Its value is “not inhibited”.
